In patent publication US20210395679A1, “IN VITRO CELL CULTURE SYSTEM FOR PRODUCING HEPATOCYTE-LIKE CELLS AND USES THEREOF” (CHILDREN'S HOSPITAL MEDICAL CENTER, priority 2018, published 2021):

Biological target: T1, MRP4 (Homo sapiens, UniProt O15439)
T1 sequence (O15439 1-1325): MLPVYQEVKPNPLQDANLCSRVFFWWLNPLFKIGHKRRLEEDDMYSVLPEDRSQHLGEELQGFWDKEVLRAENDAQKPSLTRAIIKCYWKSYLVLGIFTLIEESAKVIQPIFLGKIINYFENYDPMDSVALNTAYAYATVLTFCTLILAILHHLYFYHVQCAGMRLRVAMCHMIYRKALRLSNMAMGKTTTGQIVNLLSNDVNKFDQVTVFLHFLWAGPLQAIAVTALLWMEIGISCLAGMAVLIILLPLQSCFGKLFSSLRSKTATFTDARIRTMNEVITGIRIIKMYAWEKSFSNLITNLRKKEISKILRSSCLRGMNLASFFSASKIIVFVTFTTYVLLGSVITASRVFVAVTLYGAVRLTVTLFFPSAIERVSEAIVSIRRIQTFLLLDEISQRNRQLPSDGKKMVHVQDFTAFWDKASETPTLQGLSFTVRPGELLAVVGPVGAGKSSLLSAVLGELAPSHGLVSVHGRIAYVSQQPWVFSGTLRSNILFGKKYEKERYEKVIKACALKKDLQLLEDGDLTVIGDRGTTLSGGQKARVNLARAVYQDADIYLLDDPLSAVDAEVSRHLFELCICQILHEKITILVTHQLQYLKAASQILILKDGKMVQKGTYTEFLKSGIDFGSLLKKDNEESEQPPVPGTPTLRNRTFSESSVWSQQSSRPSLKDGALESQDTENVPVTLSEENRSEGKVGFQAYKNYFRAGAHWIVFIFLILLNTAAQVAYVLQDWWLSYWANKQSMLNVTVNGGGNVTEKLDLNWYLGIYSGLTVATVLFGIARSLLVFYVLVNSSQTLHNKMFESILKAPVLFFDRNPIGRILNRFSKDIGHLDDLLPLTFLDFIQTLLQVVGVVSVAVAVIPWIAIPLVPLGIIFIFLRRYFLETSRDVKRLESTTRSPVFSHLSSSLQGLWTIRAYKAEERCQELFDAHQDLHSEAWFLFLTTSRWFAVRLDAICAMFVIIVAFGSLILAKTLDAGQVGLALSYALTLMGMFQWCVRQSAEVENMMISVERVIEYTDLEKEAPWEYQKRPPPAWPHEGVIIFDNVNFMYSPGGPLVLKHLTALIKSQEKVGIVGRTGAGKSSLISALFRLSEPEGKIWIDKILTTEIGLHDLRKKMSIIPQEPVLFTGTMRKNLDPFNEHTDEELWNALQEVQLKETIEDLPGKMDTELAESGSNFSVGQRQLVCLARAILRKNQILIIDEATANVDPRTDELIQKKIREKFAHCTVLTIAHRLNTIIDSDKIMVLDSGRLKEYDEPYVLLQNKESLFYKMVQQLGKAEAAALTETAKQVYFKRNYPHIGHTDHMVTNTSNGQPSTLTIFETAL
Assay: Wash-out assay of intracellular-to-basolateral D4-TCA export with or without MRP4 inhibitor
Conditions: normal i-Hep, 1 h D4-TCA 10 μM in the lower chamber, fresh medium with or without inhibitor

basolateral export of D4-TCA towards the lower chamber: did not alter the basolateral export
Compound: Cn1c(CSc2nc3ccccc3s2)n[nH]c1=S [Ceefourin1]
